Assays:
[1] = biological target: T1, human B1R receptor (CHO K1 cells stably transfected with the human B1R gene) (Homo sapiens, UniProt P46663); experiment: Functional study on the bradykinin receptor 1 (B1R), Ca2+ fluorescence (Fluo-4) FLIPR/Novostar assay, hB1R cells; assay type: cell-based; details: CHO-K1, read-out: % inhibition (human B1R) at 10 μM
T1 construct: expressed in transfected cells; host or cells: CHO K1 cells (Chinese hamster ovary), stably transfected
T1 sequence (P46663 1-353): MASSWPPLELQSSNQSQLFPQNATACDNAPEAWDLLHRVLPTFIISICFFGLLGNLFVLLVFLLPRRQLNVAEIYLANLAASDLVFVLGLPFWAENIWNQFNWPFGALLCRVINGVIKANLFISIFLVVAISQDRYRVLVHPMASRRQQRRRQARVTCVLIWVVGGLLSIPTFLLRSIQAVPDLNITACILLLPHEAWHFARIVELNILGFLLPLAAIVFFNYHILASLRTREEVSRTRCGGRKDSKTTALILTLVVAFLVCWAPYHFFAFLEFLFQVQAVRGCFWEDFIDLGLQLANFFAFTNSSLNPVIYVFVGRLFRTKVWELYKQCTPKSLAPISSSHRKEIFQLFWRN
Summary of the method: (§1)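 Test compounds (10 μM) were added first and the Ca2+ rise was scored as % activation against Lys-Des-Arg9-bradykinin (≥50 nM, human) or Des-Arg9-bradykinin (≥1 μM, rat). After 6-20 min, the matching agonist was given at its EC80, and % inhibition relative to maximal achievable inhibition was calculated.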

[2] = biological target: T2, B1R receptor of the rat (CHO K1 cells stably transfected with the B1R gene of the rat) (Rattus norvegicus, UniProt P97583); experiment: Functional study on the bradykinin receptor 1 (B1R), Ca2+ fluorescence (Fluo-4) FLIPR/Novostar assay, rB1R cells; assay type: cell-based; details: CHO-K1, 10 μM, read-out: % inhibition (rat B1R) at 10 μM
T2 construct: expressed in transfected cells; host or cells: CHO K1 cells (Chinese hamster ovary), stably transfected
T2 sequence (P97583 1-337): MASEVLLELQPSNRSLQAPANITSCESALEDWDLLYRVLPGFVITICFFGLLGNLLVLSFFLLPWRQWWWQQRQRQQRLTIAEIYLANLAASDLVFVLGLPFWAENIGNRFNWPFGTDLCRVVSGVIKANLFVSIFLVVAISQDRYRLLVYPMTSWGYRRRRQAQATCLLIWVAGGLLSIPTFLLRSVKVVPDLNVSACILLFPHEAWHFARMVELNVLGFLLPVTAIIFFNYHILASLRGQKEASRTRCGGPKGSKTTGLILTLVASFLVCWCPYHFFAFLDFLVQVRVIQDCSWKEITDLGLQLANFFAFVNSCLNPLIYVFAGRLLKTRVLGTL
Summary of the method: as §1

| inhibition at 10 µM [1] [%] | inhibition at 10 µM [2] [%] | SMILES |
| --- | --- | --- |
| 96 | 91 | CN(C(=O)c1ccc2c(c1)[C@H](NC(=O)c1ccccc1Cl)CC2)C1CCN(c2ncnc3ccccc23)CC1 [Example H-127, (3R)-3-[(2-Chloro-benzoyl)amino]-N-methyl-N-(1-quinazolin-4-yl-piperidin-4-yl)-2,3-dihydro-1H-indene-5-carboxylic acid amide] |
| 99 | 100 | Cc1cc(N2CCC(N(C)C(=O)c3ccc4c(c3)[C@H](NC(=O)c3ccccc3F)CC4)CC2)nc(C)n1 [Example H-128, (3R)-N-[1-(2,6-Dimethyl-pyrimidin-4-yl)-piperidin-4-yl]-3-[(2-fluoro-benzoyl)amino]-N-methyl-2,3-dihydro-1H-indene-5-carboxylic acid amide] |
| 100 | 98 | Cc1cc(N2CCC(N(C)C(=O)c3ccc4c(c3)[C@H](NC(=O)c3cccc(F)c3Cl)CC4)CC2)nc(C)n1 [Example H-129, (3R)-3-[(2-Chloro-3-fluoro-benzoyl)amino]-N-[1-(2,6-dimethyl-pyrimidin-4-yl)-piperidin-4-yl]-N-methyl-2,3-dihydro-1H-indene-5-carboxylic acid amide] |
| 99 | 101 | Cc1cc(N2CCC(N(C)C(=O)c3ccc4c(c3)[C@H](N3Cc5cccc(Cl)c5C3=O)CC4)CC2)nc(C)n1 [Example H-130, (3R)-3-(4-Chloro-3-oxo-1,2-dihydro-isoindol-2-yl)-N-[1-(2,6-dimethyl-pyrimidin-4-yl)-piperidin-4-yl]-N-methyl-2,3-dihydro-1H-indene-5-carboxylic acid amide] |
| 55 | 77 | COc1c(C)cnc(CN2CCC(N(C)C(=O)c3ccc4c(c3)[C@H](NC(=O)c3ccccc3Cl)CC4)CC2)c1C [Example H-131, (3R)-3-[(2-Chloro-benzoyl)amino]-N-[1-[(4-methoxy-3,5-dimethyl-pyridin-2-yl)-methyl]-piperidin-4-yl]-N-methyl-2,3-dihydro-1H-indene-5-carboxylic acid amide] |
| 99 | 99 | Cc1cc(N2CCC(N(C)C(=O)c3ccc4c(c3)[C@H](NC(=O)c3ccccc3C(F)(F)F)CC4)CC2)nc(C)n1 [Example H-132, (3R)-N-[1-(2,6-Dimethyl-pyrimidin-4-yl)-piperidin-4-yl]-N-methyl-3-[[2-(trifluoromethyl)-benzoyl]amino]-2,3-dihydro-1H-indene-5-carboxylic acid amide] |
| 99 | 100 | Cc1cc(N2CCC(N(C)C(=O)c3ccc4c(c3)[C@H](NC(=O)c3cc(F)ccc3Cl)CC4)CC2)nc(C)n1 [Example H-133, (3R)-3-[(2-Chloro-5-fluoro-benzoyl)amino]-N-[1-(2,6-dimethyl-pyrimidin-4-yl)-piperidin-4-yl]-N-methyl-2,3-dihydro-1H-indene-5-carboxylic acid amide] |
| 8 | 55 | Cc1cc(CN2CCC(N(C)C(=O)c3ccc4c(c3)[C@H](NC(=O)c3ccccc3Cl)CC4)CC2)on1 [Example H-134, (3R)-3-[(2-Chloro-benzoyl)amino] N-methyl-N-[1-[(3-methyl-isoxazol-5-yl)-methyl]-piperidin-4-yl]-2,3-dihydro-1H-indene-5-carboxylic acid amide] |
| 99 | 106 | Cc1cc(N2CCC(N(C)C(=O)c3ccc4c(c3)[C@H](NC(=O)c3cccc(C(F)(F)F)c3Cl)CC4)CC2)nc(C)n1 [Example H-135, (3R)-3-[[2-Chloro-3-(trifluoromethyl)-benzoyl]amino]-N-[1-(2,6-dimethyl-pyrimidin-4-yl)-piperidin-4-yl]-N-methyl-2,3-dihydro-1H-indene-5-carboxylic acid amide] |
| 41 | 107 | CN(CC1CCN(c2ccncn2)CC1)C(=O)c1ccc2c(c1)[C@H](NC(=O)c1ccccc1Cl)CC2 [Example H-136, (3R)-3-[(2-Chloro-benzoyl)amino]-N-methy-N-[(1-pyrimidin-4-yl-piperidin-4-yl)-methyl]-2,3-dihydro-1H-indene-5-carboxylic acid amide] |
| 99 | 109 | Cc1cc(N2CCC(N(C)C(=O)c3ccc4c(c3)[C@H](NC(=O)c3cc(C(F)(F)F)ccc3Cl)CC4)CC2)nc(C)n1 [Example H-137, (3R)-3-[[2-Chloro-5-(trifluoromethyl)-benzoyl]amino]-N-[1-(2,6-dimethyl-pyrimidin-4-yl)-piperidin-4-yl]-N-methyl-2,3-dihydro-1H-indene-5-carboxylic acid amide] |
| 91 | 41 | CN1CCN(C(=O)CN2CCC(N(C)C(=O)c3ccc4c(c3)[C@H](NC(=O)c3ccccc3Cl)CC4)CC2)CC1 [Example H-138, (3R)-3-[(2-Chloro-benzoyl)amino]-N-methyl-N-[1-[2-(4-methyl-piperazin-l-yl)-2-oxo-ethyl]-piperidin-4-yl]-2,3-dihydro-1H-indene-5-carboxylic acid amide] |
| 100 | 97 | Cc1cc(N2CCC(N(C)C(=O)c3ccc4c(c3)[C@H](NC(=O)c3ccccc3Cl)CC4)CC2)nc(C(C)C)n1 [Example H-139, (3R)-3-[(2-Chloro-benzoyl)amino]-N-[1-(2-isopropyl-6-methyl-pyrimidin-4-yl)-piperidin-4-yl]-N-methyl-2,3-dihydro-1H-indene-5-carboxylic acid amide] |
| 47 | 49 | CN(C(=O)c1ccc2c(c1)[C@H](NC(=O)c1ccccc1Cl)CC2)C1CCN(CC(=O)N2CCCC2)CC1 [Example H-140, (3R)-3-[(2-Chloro-benzoyl)amino]-N-methyl-N-[1-(2-oxo-2-pyrrolidin-1-yl-ethyl)-piperidin-4-yl]-2,3-dihydro-1H-indene-5-carboxylic acid amide] |
| 99 | 105 | Cc1cc(N2CCC(N(C)C(=O)c3ccc4c(c3)[C@H](NC(=O)c3ccccc3Cl)CC4)CC2)ncn1 [Example H-141, (3R)-3-[(2-Chloro-benzoyl)amino]-N-methyl-N-[1-(6-methyl-pyrimidin-4-yl)-piperidin-4-yl]-2,3-dihydro-1H-indene-5-carboxylic acid amide] |
| 99 | 98 | Cc1cc(N2CCC(N(C)C(=O)c3cc4c(cc3F)[C@H](N3Cc5cccc(Cl)c5C3=O)CC4)CC2)nc(C)n1 [Example H-142, (1R)-1-(4-Chloro-3-oxo-1,2-dihydro-isoindol-2-yl)-N-[1-(2,6-dimethyl-pyrimidin-4-yl)-piperidin-4-yl]-6-fluoro-N-methyl-2,3-dihydro-1H-indene-5-carboxylic acid amide] |
| 98 | 31 | Cc1cc(N2CCC(N(C)C(=O)c3cc4c(cc3F)[C@H](NC(=O)c3cc(C)on3)CC4)CC2)nc(C)n1 [Example H-143, N-[(1R)-5-[[1-(2,6-Dimethyl-pyrimidin-4-yl)-piperidin-4-yl]-methyl-carbamoyl]-6-fluoro-2,3-dihydro-1H-inden-1-yl]-5-methyl-isoxazole-3-carboxylic acid amide] |
| 91 | 77 | Cc1cc(N2CCC(N(C)C(=O)c3ccc4c(c3)[C@H](N(C(=O)c3ccccc3Cl)C(C)C)CC4)CC2)nc(C)n1 [Example H-144, (3R)-3-[(2-Chloro-benzoyl)-isopropyl-amino]-N-[1-(2,6-dimethyl-pyrimidin-4-yl)-piperidin-4-yl]-N-methyl-2,3-dihydro-1H-indene-5-carboxylic acid amide] |
| 100 | 106 | CCN(C(=O)c1ccccc1Cl)[C@@H]1CCc2ccc(C(=O)N(C)C3CCN(c4cc(C)nc(C)n4)CC3)cc21 [Example H-145, (3R)-3-[(2-Chloro-benzoyl)-ethyl-amino]-N-[1-(2,6-dimethyl-pyrimidin-4-yl)-piperidin-4-yl]-N-methyl-2,3-dihydro-1H-indene-5-carboxylic acid amide] |
| -1 | 107 | CN(C(=O)c1ccc2c(c1)[C@H](NC(=O)c1ccccc1Cl)CC2)C1CN(c2ccncc2)C1 [Example H-146, (3R)-3-[(2-Chloro-benzoyl)amino]-N-methyl-N-(1-pyridin-4-yl-azetidin-3-yl)-2,3-dihydro-1H-indene-5-carboxylic acid amide] |

— patent publication US8680159B2, “Bradykinin 1 receptor modulating compounds” (Gruenenthal GmbH, priority 2010, dated 2014)
